Laboratory results taken from patent publication US11702404B2, “GLP-1R modulating compounds” (priority 2019, dated 2023).
Like-named read-outs stand apart in the source and are kept apart here.

What was measured:
[1] = Microsomal stability, human liver microsomes (predicted hepatic clearance); conditions: predicted from in vitro microsomal stability data
GLP-1R = GLP-1R (Homo sapiens, UniProt P43220); experiment: GLP-1R activation: cAMP increase in CHO cells stably expressing GLP-1R; type: cell-based
[2] = cAMP increase, CHO cells stably expressing GLP-1R, 10 point dose response, 30 minutes incubation, read-out: EC50

Chain of GLP-1R (P43220 24-463): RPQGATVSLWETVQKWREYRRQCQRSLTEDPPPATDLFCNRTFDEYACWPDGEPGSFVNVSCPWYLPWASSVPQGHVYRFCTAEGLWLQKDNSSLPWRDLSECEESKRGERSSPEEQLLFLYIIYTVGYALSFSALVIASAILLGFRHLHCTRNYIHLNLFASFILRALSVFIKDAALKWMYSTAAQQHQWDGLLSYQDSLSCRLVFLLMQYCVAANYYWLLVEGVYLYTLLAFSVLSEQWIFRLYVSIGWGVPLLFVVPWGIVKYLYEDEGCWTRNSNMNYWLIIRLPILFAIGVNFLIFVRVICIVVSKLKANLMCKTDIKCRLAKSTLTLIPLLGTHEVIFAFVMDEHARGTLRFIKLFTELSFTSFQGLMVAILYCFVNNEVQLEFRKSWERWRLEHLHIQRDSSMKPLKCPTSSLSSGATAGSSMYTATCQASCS

Compound | Predicted Hepatic Clearance (Pred. Cl.) [1] [mL/min/kg] | EC50 (GLP-1R; [2]) [nM] | EC50 (GLP-1R; EC50 (nM)) [nM]
COCCn1c(Cc2ccc(-c3cccc(OCc4cc(F)c(Cl)cc4OC)n3)cc2F)nc2ccc(C(=O)O)cc21 [Example 481, 2-(4-(6-((4-chloro-5-fluoro-2-methoxybenzyl)oxy)pyridin-2-yl)-2-fluorobenzyl)-1-(2-methoxyethyl)-1H-benzo[d]imidazole-6-carboxylic acid] | <1.83 | 2.9 | –
CO[C@@H](C)Cn1c(Cc2ccc(-c3cccc(OCc4ccc(C#N)cc4F)n3)cc2F)nc2ccc(C(=O)O)cc21 [Example 331, (S)-2-(4-(6-((4-cyano-2-fluorobenzyl)oxy)pyridin-2-yl)-2-fluorobenzyl)-1-(2-methoxypropyl)-1H-benzo[d]imidazole-6-carboxylic acid] | 4 | 12.3 | –
COCCn1c(Cc2ccc(-c3cccc(OCc4ccc(C#N)cc4)n3)cc2F)nc2ccc(C(=O)O)cc21 [Example 499, 2-(4-(6-((4-cyanobenzyl)oxy)pyridin-2-yl)-2-fluorobenzyl)-1-(2-methoxyethyl)-1H-benzo[d]imidazole-6-carboxylic acid] | 3.5 | – | 8.18
N#Cc1ccc(COc2cccc(-c3ccc(Cc4nc5ccc(C(=O)O)cc5n4CC4CCS4(=O)=O)c(F)c3)n2)c(F)c1 (centres unmarked) [Example 17, 2-(4-(6-((4-cyano-2-fluorobenzyl)oxy)pyridin-2-yl)-2-fluorobenzyl)-1-((1,1-dioxidothietan-2-yl)methyl)-1H-benzo[d]imidazole-6-carboxylic acid] | 2.67 | 11 | –
COCCn1c(Cc2cc(F)c(-c3cccc(OCc4ccc(C#N)cc4F)n3)cc2F)nc2c(F)cc(C(=O)O)cc21 [Example 301, 2-(4-(6-((4-cyano-2-fluorobenzyl)oxy)pyridin-2-yl)-2,5-difluorobenzyl)-4-fluoro-1-(2-methoxyethyl)-1H-benzo[d]imidazole-6-carboxylic acid] | 5.05 | – | 0.73
COCCn1c(Cc2c(F)cc(-c3cccc(OCc4ccc(C#N)cc4F)n3)cc2C#N)nc2ccc(C(=O)O)cc21 [Example 537, 2-(2-cyano-4-(6-((4-cyano-2-fluorobenzyl)oxy)pyridin-2-yl)-6-fluorobenzyl)-1-(2-methoxyethyl)-1H-benzo[d]imidazole-6-carboxylic acid] | 3.3 | – | 6.89
COCCn1c(Cc2cc(F)c(-c3cccc(OCc4ccc(Cl)cc4)n3)cc2F)nc2ccc(C(=O)O)cc21 [Example 602, 2-(4-(6-((4-chlorobenzyl)oxy)pyridin-2-yl)-2,5-difluorobenzyl)-1-(2-methoxyethyl)-1H-benzo[d]imidazole-6-carboxylic acid] | 2.83 | 1.17 | –
N#Cc1ccc(COc2cccc(-c3ccc(Cc4nc5c(F)cc(C(=O)O)cc5n4C[C@@H]4CCO4)cc3F)n2)c(F)c1 [Example 492, (S)-2-(4-(6-((4-cyano-2-fluorobenzyl)oxy)pyridin-2-yl)-3-fluorobenzyl)-4-fluoro-1-(oxetan-2-ylmethyl)-1H-benzo[d]imidazole-6-carboxylic acid] | <1.83 | 5.16 | –
N#Cc1ccc(COc2cccc(-c3cc(F)c(Cc4nc5ccc(C(=O)O)cc5n4Cc4nccs4)cc3F)n2)c(F)c1 [Example 707] | 4 | 4.81 | –
COCCn1c(Cc2ccc(-c3cccc(OCc4ccc(C(F)(F)F)cc4OC)n3)cc2F)nc2ccc(C(=O)O)cc21 [Example 459, 2-(2-fluoro-4-(6-((2-methoxy-4-(trifluoromethyl)benzyl)oxy)pyridin-2-yl)benzyl)-1-(2-methoxyethyl)-1H-benzo[d]imidazole-6-carboxylic acid] | <1.83 | 2.35 | –
COC1(Cn2c(Cc3cc(F)c(-c4cccc(OCc5ccc(C#N)cc5F)n4)cc3F)nc3ccc(C(=O)O)cc32)CCC1 [Example 747] | 7.33 | 0.81 | –
COc1cc(Cl)ccc1COc1nccc(-c2ccc(Cc3nc4ccc(C(=O)O)cc4n3CC3(CC#N)CC3)cc2F)n1 [Example 93, 2-(4-(2-((4-chloro-2-methoxybenzyl)oxy)pyrimidin-4-yl)-3-fluorobenzyl)-1-((1-(cyanomethyl)cyclopropyl)methyl)-1H-benzo[d]imidazole-6-carboxylic acid] | 14.5 | 0.28 | –
N#Cc1ccc(COc2cccc(-c3ccc(Cc4nc5ccc(C(=O)O)cc5n4CC4(c5ccncc5)CC4)c(F)c3)n2)c(F)c1 [Example 275, 2-(4-(6-((4-cyano-2-fluorobenzyl)oxy)pyridin-2-yl)-2-fluorobenzyl)-1-((1-(pyridin-4-yl)cyclopropyl)methyl)-1H-benzo[d]imidazole-6-carboxylic acid] | 12.2 | 5.51 | –
N#Cc1ccc(COc2nc(-c3cc(F)c(Cc4nc5c(F)cc(C(=O)O)cc5n4C[C@@H]4CCO4)cc3F)ccc2F)cn1 [Example 779] | 1.83 | 0.17 | –
N#Cc1ccc(COc2nc(-c3cc(F)c(Cc4nc5c(F)cc(C(=O)O)cc5n4CC4(CF)CC4)cc3F)ncc2F)c(F)c1 [Example 167, 2-(4-(4-((4-cyano-2-fluorobenzyl)oxy)-5-fluoropyrimidin-2-yl)-2,5-difluorobenzyl)-4-fluoro-1-((1-(fluoromethyl)cyclopropyl)methyl)-1H-benzo[d]imidazole-6-carboxylic acid] | 6 | 0.11 | –
COCCn1c(Cc2ccc(-c3cccc(OCc4cccc(C5CC5)c4)n3)cc2F)nc2ccc(C(=O)O)cc21 [Example 137, 2-(4-(6-((3-cyclopropylbenzyl)oxy)pyridin-2-yl)-2-fluorobenzyl)-1-(2-methoxyethyl)-1H-benzo[d]imidazole-6-carboxylic acid] | 4.83 | 32.2 | –
N#Cc1ccc(COc2nc(-c3cc(F)c(Cc4nc5ccc(C(=O)O)cc5n4C[C@@H]4CCO4)cc3F)ccc2F)c(F)c1 [Example 450, (S)-2-(4-(6-((4-cyano-2-fluorobenzyl)oxy)-5-fluoropyridin-2-yl)-2,5-difluorobenzyl)-1-(oxetan-2-ylmethyl)-1H-benzo[d]imidazole-6-carboxylic acid] | <1.83 | 0.77 | –
O=C(O)c1cc(F)c2nc(Cc3cc(F)c(-c4ccc(F)c(OCc5ccc(C(F)F)cc5F)n4)cc3F)n(C[C@@H]3CCO3)c2c1 [Example 767] | 1.83 | 0.51 | –
COCCn1c(Cc2c(F)cc(-c3cccnc3OCc3ccc(Cl)cc3F)cc2F)nc2ccc(C(=O)O)cc21 [Example 174, 2-(4-(2-((4-chloro-2-fluorobenzyl)oxy)pyridin-3-yl)-2,6-difluorobenzyl)-1-(2-methoxyethyl)-1H-benzo[d]imidazole-carboxylic acid] | 5.67 | 32.9 | –
COCCn1c(Cc2cc(F)c(-c3cccc(OCc4ccc(C#N)cc4)n3)cc2F)nc2ccc(C(=O)O)cc21 [Example 604, 2-(4-(6-((4-cyanobenzyl)oxy)pyridin-2-yl)-2,5-difluorobenzyl)-1-(2-methoxyethyl)-1H-benzo[d]imidazole-6-carboxylic acid] | 4.5 | 0.92 | –
N#Cc1ccc(COc2cccc(-c3ccc(Cc4nc5ccc(C(=O)O)cc5n4CC4(C5CC5)CC4)c(F)c3)n2)c(F)c1 [Example 293, 1-([1,1′-bi(cyclopropan)]-1-ylmethyl)-2-(4-(6-((4-cyano-2-fluorobenzyl)oxy)pyridin-2-yl)-2-fluorobenzyl)-1H-benzo[d]imidazole-6-carboxylic acid] | <1.83 | 3.13 | –
N#Cc1ccc(COc2cccc(-c3cc(F)c(Cc4nc5ccc(C(=O)O)cc5n4CC45CC(CO4)C5)cc3F)n2)c(F)c1 [Example 574] | 1.92 | 0.63 | –
N#Cc1ccc(COc2cccc(-c3cc(F)c(Cc4nc5ccc(C(=O)O)cc5n4[C@H]4CCC(F)(F)C4)cc3F)n2)c(F)c1 [Example 698] | 6.33 | 63.2 | –
COCCn1c(Cc2cc(F)c(-c3cccc(OCc4ccc(C(C)=O)cc4)n3)cc2F)nc2ccc(C(=O)O)cc21 [Example 875] | 9.33 | 2.32 | –
COCCn1c(Cc2cc(F)c(-c3cccc(OCc4ccc(Cl)cc4F)n3)cc2F)nc2ccc(C(=O)O)cc21 [Example 563, 2-(4-(6-((4-chloro-2-fluorobenzyl)oxy)pyridin-2-yl)-2,5-difluorobenzyl)-1-(2-methoxyethyl)-1H-benzo[d]imidazole-6-carboxylic acid] | 3.67 | 1 | –
N#Cc1ccc(COc2cccc(-c3ccc(Cc4nc5ncc(C(=O)O)cc5n4CC4(CF)CC4)c(F)c3)n2)c(F)c1 [Example 94, 2-(4-(6-((4-cyano-2-fluorobenzyl)oxy)pyridin-2-yl)-2-fluorobenzyl)-1-((1-(fluoromethyl)cyclopropyl)methyl)-1H-imidazo[4,5-b]pyridine-6-carboxylic acid] | <1.83 | 0.66 | –
COCCn1c(Cc2ccc(-c3cc(C#N)cc(OCc4ccc(C#N)cc4F)n3)cc2F)nc2ccc(C(=O)O)cc21 [Example 85, 2-(4-(4-cyano-6-((4-cyano-2-fluorobenzyl)oxy)pyridin-2-yl)-2-fluorobenzyl)-1-(2-methoxyethyl)-1H-benzo[d]imidazole-6-carboxylic acid] | 3.67 | 4.9 | –
CCn1cnnc1Cn1c(Cc2cc(F)c(-c3cccc(OCc4ccc(C(F)F)cc4F)n3)cc2F)nc2ccc(C(=O)O)cc21 [Example 678] | 4.17 | 0.88 | –
